Reference: PubChem BioAssay (NCI)
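Tested at 5 concentrations; 48 h exposure; 96-well plates; endpoints linearly interpolated, else capped at highest concentration. GI50 is the concentration that inhibits growth by half. TGI marks complete inhibition of growth.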

Columns and labels:
Test in all cases: inhibition of tumour cell growth, NCI panel, 48 h
ACHN renal = test system: ACHN renal
PC-3 prostate = test system: PC-3 prostate
786-0 renal = test system: 786-0 renal
SNB-75 CNS = test system: SNB-75 CNS
T-47D breast = test system: T-47D breast
SK-MEL-5 melanoma = test system: SK-MEL-5 melanoma
MCF7 breast = test system: MCF7 breast
NCI-H226 lung = test system: NCI-H226 lung
M14 melanoma = test system: M14 melanoma
COLO 205 colon = test system: COLO 205 colon
UACC-62 melanoma = test system: UACC-62 melanoma
OVCAR-3 ovarian = test system: OVCAR-3 ovarian
HT29 colon = test system: HT29 colon
SF-268 CNS = test system: SF-268 CNS
TK-10 renal = test system: TK-10 renal
CCRF-CEM leukemia = test system: CCRF-CEM leukemia
HOP-62 NSCLC = test system: HOP-62 NSCLC
HS 578T breast = test system: HS 578T breast
SW-620 colon = test system: SW-620 colon
OVCAR-5 ovarian = test system: OVCAR-5 ovarian
SF-539 CNS = test system: SF-539 CNS
SNB-19 CNS = test system: SNB-19 CNS
U251 CNS = test system: U251 CNS
A549 NSCLC = test system: A549 NSCLC
IGROV1 ovarian = test system: IGROV1 ovarian
NCI-H522 lung = test system: NCI-H522 lung
CAKI-1 renal = test system: CAKI-1 renal
SF-295 CNS = test system: SF-295 CNS
HCT-15 colon = test system: HCT-15 colon
BT-549 breast = test system: BT-549 breast
NCI/ADR-RES ovarian = test system: NCI/ADR-RES ovarian
K-562 leukemia = test system: K-562 leukemia
SK-OV-3 ovarian = test system: SK-OV-3 ovarian
UO-31 renal = test system: UO-31 renal
RXF 393 renal = test system: RXF 393 renal
SN12C renal = test system: SN12C renal
LOX IMVI melanoma = test system: LOX IMVI melanoma
SK-MEL-2 melanoma = test system: SK-MEL-2 melanoma
MOLT-4 leukemia = test system: MOLT-4 leukemia
MALME-3M melanoma = test system: MALME-3M melanoma
KM12 colon = test system: KM12 colon
MDA-MB-231 breast = test system: MDA-MB-231 breast
DU-145 prostate = test system: DU-145 prostate
NCI-H460 lung = test system: NCI-H460 lung
OVCAR-8 ovarian = test system: OVCAR-8 ovarian
HOP-92 NSCLC = test system: HOP-92 NSCLC
RPMI-8226 leukemia = test system: RPMI-8226 leukemia
SR leukemia = test system: SR leukemia
SK-MEL-28 melanoma = test system: SK-MEL-28 melanoma
UACC-257 melanoma = test system: UACC-257 melanoma
A498 renal = test system: A498 renal
MDA-MB-435 = test system: MDA-MB-435
HCC-2998 colon = test system: HCC-2998 colon
EKVX NSCLC = test system: EKVX NSCLC
HCT-116 colon = test system: HCT-116 colon
HL-60(TB) leukemia = test system: HL-60(TB) leukemia
OVCAR-4 ovarian = test system: OVCAR-4 ovarian

Structure (SMILES): O=C(CSc1nc2sc3c(c2c(=O)n1-c1ccc(Cl)cc1)CCCC3)NNC(=O)Nc1ccc(Cl)c(C(F)(F)F)c1
- GI50 (ACHN renal): 3.56 µM
- TGI (ACHN renal): 16.9 µM
- GI50 (PC-3 prostate): 2.05 µM
- TGI (PC-3 prostate): 6.62 µM
- GI50 (786-0 renal): 4.23 µM
- TGI (786-0 renal): 16 µM
- GI50 (SNB-75 CNS): 2.01 µM
- TGI (SNB-75 CNS): 7.88 µM
- GI50 (T-47D breast): 1.83 µM
- TGI (T-47D breast): 4.2 µM
- GI50 (SK-MEL-5 melanoma): 4.06 µM
- TGI (SK-MEL-5 melanoma): 14.7 µM
- GI50 (MCF7 breast): 2.77 µM
- TGI (MCF7 breast): 17.6 µM
- GI50 (NCI-H226 lung): 2.89 µM
- TGI (NCI-H226 lung): 11.3 µM
- GI50 (M14 melanoma): 3.42 µM
- TGI (M14 melanoma): 14.1 µM
- GI50 (COLO 205 colon): 2.05 µM
- TGI (COLO 205 colon): 4.7 µM
- GI50 (UACC-62 melanoma): 2.5 µM
- TGI (UACC-62 melanoma): 10 µM
- GI50 (OVCAR-3 ovarian): 2.95 µM
- TGI (OVCAR-3 ovarian): 10.6 µM
- GI50 (HT29 colon): 3.05 µM
- TGI (HT29 colon): 9.54 µM
- GI50 (SF-268 CNS): 6.21 µM
- TGI (SF-268 CNS): > 100 µM
- GI50 (TK-10 renal): 4.3 µM
- TGI (TK-10 renal): 23.6 µM
- GI50 (CCRF-CEM leukemia): 3.65 µM
- TGI (CCRF-CEM leukemia): > 100 µM
- GI50 (HOP-62 NSCLC): 4.3 µM
- TGI (HOP-62 NSCLC): 19.1 µM
- GI50 (HS 578T breast): 6.93 µM
- TGI (HS 578T breast): 73.1 µM
- GI50 (SW-620 colon): 3.16 µM
- TGI (SW-620 colon): 13.2 µM
- GI50 (OVCAR-5 ovarian): 4.4 µM
- TGI (OVCAR-5 ovarian): 19.7 µM
- GI50 (SF-539 CNS): 6.53 µM
- TGI (SF-539 CNS): 21.2 µM
- GI50 (SNB-19 CNS): 4.08 µM
- TGI (SNB-19 CNS): > 100 µM
- GI50 (U251 CNS): 2.93 µM
- TGI (U251 CNS): 10.9 µM
- GI50 (A549 NSCLC): 3.3 µM
- TGI (A549 NSCLC): 15.7 µM
- GI50 (IGROV1 ovarian): 4.71 µM
- TGI (IGROV1 ovarian): 91.7 µM
- GI50 (NCI-H522 lung): 1.96 µM
- TGI (NCI-H522 lung): 6.05 µM
- GI50 (CAKI-1 renal): 1.99 µM
- TGI (CAKI-1 renal): 6.17 µM
- GI50 (SF-295 CNS): 3.11 µM
- TGI (SF-295 CNS): 8.87 µM
- GI50 (HCT-15 colon): 3.59 µM
- TGI (HCT-15 colon): 18.6 µM
- GI50 (BT-549 breast): 3.5 µM
- TGI (BT-549 breast): 14.4 µM
- GI50 (NCI/ADR-RES ovarian): 6.57 µM
- TGI (NCI/ADR-RES ovarian): 97.3 µM
- GI50 (K-562 leukemia): 2.51 µM
- TGI (K-562 leukemia): > 100 µM
- GI50 (SK-OV-3 ovarian): 4.66 µM
- TGI (SK-OV-3 ovarian): 20.4 µM
- GI50 (UO-31 renal): 2.85 µM
- TGI (UO-31 renal): 29.5 µM
- GI50 (RXF 393 renal): 2.58 µM
- TGI (RXF 393 renal): 9.32 µM
- GI50 (SN12C renal): 3.3 µM
- TGI (SN12C renal): 12.9 µM
- GI50 (LOX IMVI melanoma): 1.76 µM
- TGI (LOX IMVI melanoma): 3.49 µM
- GI50 (SK-MEL-2 melanoma): 2.46 µM
- TGI (SK-MEL-2 melanoma): 7.24 µM
- GI50 (MOLT-4 leukemia): 2.74 µM
- TGI (MOLT-4 leukemia): 14.1 µM
- GI50 (MALME-3M melanoma): 2.45 µM
- TGI (MALME-3M melanoma): 6.82 µM
- GI50 (KM12 colon): 3.75 µM
- TGI (KM12 colon): > 100 µM
- GI50 (MDA-MB-231 breast): 4.45 µM
- TGI (MDA-MB-231 breast): 20.5 µM
- GI50 (DU-145 prostate): 3.86 µM
- TGI (DU-145 prostate): > 100 µM
- GI50 (NCI-H460 lung): 3.16 µM
- TGI (NCI-H460 lung): 10.9 µM
- GI50 (OVCAR-8 ovarian): 3.12 µM
- TGI (OVCAR-8 ovarian): 11.9 µM
- GI50 (HOP-92 NSCLC): 1.44 µM
- TGI (HOP-92 NSCLC): 3.97 µM
- GI50 (RPMI-8226 leukemia): 2.99 µM
- TGI (RPMI-8226 leukemia): 17.9 µM
- GI50 (SR leukemia): 3.3 µM
- TGI (SR leukemia): 46.1 µM
- GI50 (SK-MEL-28 melanoma): 4.48 µM
- TGI (SK-MEL-28 melanoma): 17.3 µM
- GI50 (UACC-257 melanoma): 2.94 µM
- TGI (UACC-257 melanoma): 12.6 µM
- GI50 (A498 renal): 2.58 µM
- TGI (A498 renal): 8.61 µM
- GI50 (MDA-MB-435): 3.67 µM
- TGI (MDA-MB-435): 14.6 µM
- GI50 (HCC-2998 colon): 3.04 µM
- TGI (HCC-2998 colon): 9.42 µM
- GI50 (EKVX NSCLC): 2.68 µM
- TGI (EKVX NSCLC): 8.85 µM
- GI50 (HCT-116 colon): 1.87 µM
- TGI (HCT-116 colon): 3.99 µM
- GI50 (HL-60(TB) leukemia): 3.18 µM
- TGI (HL-60(TB) leukemia): 17.7 µM
- GI50 (OVCAR-4 ovarian): 1.92 µM
- TGI (OVCAR-4 ovarian): 4.31 µM
